Results from the supplement of paper PMC10307832.

Columns and labels:
Assay in all cases: relative viability (nuclei count vs DMSO), 5 days (fraction); higher = more cells survive
Seliciclib + Bortezomib = compound: CC[C@H](CO)Nc1nc(NCc2ccccc2)c2ncn(C(C)C)c2n1 [Seliciclib] + CC(C)C[C@H](NC(=O)[C@H](Cc1ccccc1)NC(=O)c1cnccn1)B(O)O [Bortezomib] (partner 0.002 µM)
Procedure, shortened: (§1)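 Medians of duplicate plates are given as relative viability. That measure is the nuclei count in treated wells divided by the count in vehicle wells. Counts were taken on 4× images of lung cancer cell lines in 1536-well plates, 5 days after pin-tool dosing the day after seeding with one drug alone or a fixed anchor-drug dose plus five library-drug doses (not always all listed) in √10 steps.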

Seliciclib + Lapatinib = compound: CC[C@H](CO)Nc1nc(NCc2ccccc2)c2ncn(C(C)C)c2n1 [Seliciclib] + CS(=O)(=O)CCNCc1ccc(-c2ccc3ncnc(Nc4ccc(OCc5cccc(F)c5)c(Cl)c4)c3c2)o1 [Lapatinib] (partner 2 µM)
Procedure, shortened: as §1

Seliciclib + AZD7762 = compound: CC[C@H](CO)Nc1nc(NCc2ccccc2)c2ncn(C(C)C)c2n1 [Seliciclib] + NC(=O)Nc1cc(-c2cccc(F)c2)sc1C(=O)N[C@H]1CCCNC1 [AZD7762] (partner 0.2 µM)
Procedure, shortened: as §1

Seliciclib + Decitabine = compound: CC[C@H](CO)Nc1nc(NCc2ccccc2)c2ncn(C(C)C)c2n1 [Seliciclib] + Nc1ncn([C@H]2C[C@H](O)[C@@H](CO)O2)c(=O)n1 [Decitabine] (partner 2 µM)
Procedure, shortened: as §1

Cell Line | relative viability (Seliciclib + Bortezomib; first compound 0.08 µM) | relative viability (Seliciclib + Bortezomib; first compound 0.253 µM) | relative viability (Seliciclib + Bortezomib; first compound 0.8 µM) | relative viability (Seliciclib + Bortezomib; first compound 2.53 µM) | relative viability (Seliciclib + Bortezomib; first compound 8 µM) | relative viability (Seliciclib + Lapatinib; first compound 0.08 µM) | relative viability (Seliciclib + Lapatinib; first compound 0.253 µM) | relative viability (Seliciclib + Lapatinib; first compound 0.8 µM) | relative viability (Seliciclib + Lapatinib; first compound 2.53 µM) | relative viability (Seliciclib + Lapatinib; first compound 8 µM) | relative viability (Seliciclib + AZD7762; first compound 0.08 µM) | relative viability (Seliciclib + AZD7762; first compound 0.253 µM) | relative viability (Seliciclib + AZD7762; first compound 0.8 µM) | relative viability (Seliciclib + AZD7762; first compound 2.53 µM) | relative viability (Seliciclib + AZD7762; first compound 8 µM) | relative viability (Seliciclib + Decitabine; first compound 0.08 µM) | relative viability (Seliciclib + Decitabine; first compound 0.253 µM) | relative viability (Seliciclib + Decitabine; first compound 0.8 µM) | relative viability (Seliciclib + Decitabine; first compound 2.53 µM) | relative viability (Seliciclib + Decitabine; first compound 8 µM)
LC-2-ad | 1.02 | 0.514 | 0.986 | 0.958 | 0.816 | 0.948 | 1.15 | 0.895 | 0.829 | 0.857 | 0.839 | 0.882 | 0.791 | 0.741 | 0.853 | 0.752 | 0.95 | 0.717 | 0.812 | 0.721
LCLC-97TM1 | 0.816 | 0.767 | 0.646 | 0.163 | 0.195 | 1.12 | 1.71 | 1.36 | – | 0.364 | 0.232 | 0.258 | 0.432 | – | 0.392 | 0.237 | 0.187 | 0.189 | 0.231 | 0.201
LCLC-103H | 0.94 | 1.03 | 0.92 | 0.939 | 1.01 | – | – | – | – | – | 0.793 | 0.676 | 0.65 | 0.696 | 0.74 | 0.781 | 0.727 | 0.755 | 0.735 | 0.644
LOU-NH91 | 0.5 | 0.519 | 0.518 | 0.408 | 0.399 | 0.743 | 0.682 | 0.729 | 0.6 | 0.681 | – | 0.715 | 0.794 | 0.702 | 0.569 | – | 0.795 | 0.784 | 0.785 | 0.693
LU99A | 1.16 | 1.05 | 1.01 | 0.94 | 0.803 | 1.01 | 0.923 | 1.02 | 0.666 | 0.537 | 0.338 | 0.321 | 0.491 | 0.317 | 0.49 | 0.914 | 0.777 | 0.978 | 0.837 | 0.739
LXF-289 | 0.981 | 1.11 | 0.904 | 0.971 | 0.838 | 0.908 | 1.04 | 0.806 | 0.891 | 0.791 | 1.09 | 1.33 | 1.06 | 1.16 | 0.993 | 0.348 | 0.299 | 0.403 | 0.39 | 0.39
NCI-H23 | 0.84 | 0.776 | 1.1 | 0.496 | 0.895 | 0.97 | 1.08 | 1.19 | 0.657 | 0.851 | 0.25 | 0.292 | 0.424 | 0.258 | 0.468 | 0.278 | 0.293 | 0.316 | 0.288 | 0.268
NCI-H322M | 1.21 | 1.4 | 1.18 | 1.23 | 1.09 | 0.67 | 0.641 | 0.509 | 0.443 | 0.457 | 0.594 | 0.646 | 0.637 | 0.692 | 0.907 | 0.782 | 0.715 | 0.715 | 0.668 | 0.614
NCI-H441 | 0.662 | 0.429 | 0.314 | 0.406 | 0.531 | – | – | – | – | – | 1.1 | 1.09 | 0.979 | 1.28 | 0.994 | 0.262 | 0.265 | 0.258 | 0.201 | 0.256
NCI-H460 | 1.14 | 1.26 | 1.09 | 1.48 | 0.912 | 0.895 | 1.04 | 0.922 | 1.34 | 0.826 | 0.567 | 0.752 | 0.71 | 1.06 | 0.773 | 0.455 | 0.57 | 0.446 | 0.591 | 0.388
NCI-H596 | 1.1 | 0.892 | 0.96 | 1.19 | 0.914 | 0.969 | 0.831 | 1.1 | 1.21 | 0.939 | 1.12 | – | 1.17 | 1.19 | 0.993 | 0.951 | – | 0.961 | 1.03 | 0.828
NCI-H647 | 0.789 | 0.849 | 0.941 | 1.05 | 0.891 | 1.25 | 1.11 | 1.07 | 1.28 | 1.01 | 0.676 | 0.554 | 0.496 | 0.554 | 0.48 | 0.314 | 0.235 | 0.562 | 0.453 | 0.452
NCI-H650 | 0.764 | 0.813 | 1.15 | – | 0.682 | 0.953 | 1.12 | 1.1 | – | 0.765 | 1.15 | 0.863 | 1.26 | 0.947 | 1.07 | 0.333 | 0.299 | 0.306 | 0.295 | 0.332
NCI-H1395 | – | – | – | – | – | 1.03 | 0.811 | 1.09 | 0.871 | 0.861 | 0.41 | 0.436 | 0.419 | – | 0.533 | 0.729 | 0.621 | 0.681 | – | 0.705
NCI-H1703 | 0.416 | 0.297 | 0.371 | 0.353 | 0.249 | 1.07 | 0.861 | 1.03 | 1.14 | 0.846 | 0.132 | 0.147 | 0.135 | 0.126 | 0.111 | – | – | – | – | –
NCI-H1793 | – | – | – | – | – | 0.888 | 0.54 | 0.583 | 0.77 | 0.655 | 0.51 | 0.45 | 0.547 | 0.792 | 1.09 | 0.496 | 0.47 | 0.477 | 0.539 | 0.529
NCI-H1944 | – | – | – | – | – | 0.842 | 0.788 | 0.859 | 0.619 | 0.449 | 0.521 | 0.473 | 0.503 | 0.584 | 0.636 | 0.471 | 0.43 | 0.467 | 0.519 | 0.405
NCI-H2170 | – | – | – | – | – | 0.272 | 0.274 | 0.269 | 0.259 | 0.268 | 0.841 | – | 0.877 | 0.979 | 0.921 | 0.453 | – | 0.452 | 0.537 | 0.442
